# Assay results: PubChem BioAssay AID1963834 (Molecular Pharmacology Branch, DTP, NCI, 2024)
# Test system: 873145-292-R-J1-PDC complex spheroid viability
# Experiment: Anticancer human tumor 873145-292-R-J1-PDC patient-derived renal clear cell carcinoma cell line growth inhibition [POLQ]
# Conditions: for IC50: curve of first compound; for viability, T/C: stronger effect = lower value
# Method in brief: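 Growth inhibition in 3D: complex spheroids (tumor PDC, HUVEC, MSC) treated with POLQ inhibitor combinations; where Cmax unknown, highest tested concentration 10 microM, except SN-38 at 1 microM.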
# [1] = second compound 0.0316 µM, first compound 0.0316 µM
# [2] = second compound 0.0316 µM, first compound 0.1 µM
# [3] = second compound 0.0316 µM, first compound 0.316 µM
# [4] = second compound 0.0316 µM, first compound 1 µM
# [5] = second compound 0.0316 µM, first compound 3.16 µM
# [6] = second compound 0.0316 µM, first compound 10 µM
# [7] = second compound 0.1 µM, first compound 0.0316 µM
# [8] = second compound 0.1 µM, first compound 0.1 µM
# [9] = second compound 0.1 µM, first compound 0.316 µM
# [10] = second compound 0.1 µM, first compound 1 µM
# [11] = second compound 0.1 µM, first compound 3.16 µM
# [12] = second compound 0.1 µM, first compound 10 µM
# [13] = second compound 0.316 µM, first compound 0.0316 µM
# [14] = second compound 0.316 µM, first compound 0.1 µM
# [15] = second compound 0.316 µM, first compound 0.316 µM
# [16] = second compound 0.316 µM, first compound 1 µM
# [17] = second compound 0.316 µM, first compound 3.16 µM
# [18] = second compound 0.316 µM, first compound 10 µM
# [19] = second compound 1 µM, first compound 0.0316 µM
# [20] = second compound 1 µM, first compound 0.1 µM
# [21] = second compound 1 µM, first compound 0.316 µM
# [22] = second compound 1 µM, first compound 1 µM
# [23] = second compound 1 µM, first compound 3.16 µM
# [24] = second compound 1 µM, first compound 10 µM
# [25] = second compound 3.16 µM, first compound 0.0316 µM
# [26] = second compound 3.16 µM, first compound 0.1 µM
# [27] = second compound 3.16 µM, first compound 0.316 µM
# [28] = second compound 3.16 µM, first compound 1 µM
# [29] = second compound 3.16 µM, first compound 3.16 µM
# [30] = second compound 3.16 µM, first compound 10 µM
# [31] = second compound 10 µM, first compound 0.0316 µM
# [32] = second compound 10 µM, first compound 0.1 µM
# [33] = second compound 10 µM, first compound 0.316 µM
# [34] = second compound 10 µM, first compound 1 µM
# [35] = second compound 10 µM, first compound 3.16 µM
# [36] = second compound 10 µM, first compound 10 µM
# 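Also: spheroids exposed to compounds for 7 days before viability readout.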
# 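For viability, T/C in this document: luminescence signal used as surrogate for viable cell content; 100% = DMSO vehicle control viability.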
smiles,measurement,setting,value
COc1cccc2c1C(=O)c1c(O)c3c(c(O)c1C2=O)CC(O)(C(=O)CO)CC3OC1CC(N)C(O)C(C)O1 (stereo unspecified) + COC1C(OC(N)=O)C(O)C(Oc2ccc3c(O)c(NC(=O)c4ccc(O)c(CC=C(C)C)c4)c(=O)oc3c2C)OC1(C)C,IC50,second compound 0.0316 µM,1.61 µM
same,IC50,second compound 0.1 µM,1.6 µM
same,IC50,second compound 0.316 µM,1.51 µM
same,IC50,second compound 1 µM,1.4 µM
same,IC50,second compound 3.16 µM,1.45 µM
same,IC50,second compound 10 µM,1.5 µM
same,"viability, T/C",[1],98.9%
same,"viability, T/C",[2],92.4%
same,"viability, T/C",[3],74.9%
same,"viability, T/C",[4],81.8%
same,"viability, T/C",[5],4.46%
same,"viability, T/C",[6],4.3%
same,"viability, T/C",[7],99.5%
same,"viability, T/C",[8],91.7%
same,"viability, T/C",[9],75.1%
same,"viability, T/C",[10],80.8%
same,"viability, T/C",[11],5.22%
same,"viability, T/C",[12],4.58%
same,"viability, T/C",[13],98.1%
same,"viability, T/C",[14],84.2%
same,"viability, T/C",[15],69.3%
same,"viability, T/C",[16],74.1%
same,"viability, T/C",[17],7.63%
same,"viability, T/C",[18],3.12%
same,"viability, T/C",[19],99.6%
same,"viability, T/C",[20],78.8%
same,"viability, T/C",[21],78.8%
same,"viability, T/C",[22],68.5%
same,"viability, T/C",[23],5.35%
same,"viability, T/C",[24],3.76%
same,"viability, T/C",[25],93.3%
same,"viability, T/C",[26],79.8%
same,"viability, T/C",[27],80.7%
same,"viability, T/C",[28],71.1%
same,"viability, T/C",[29],5.62%
same,"viability, T/C",[30],2.42%
same,"viability, T/C",[31],101%
same,"viability, T/C",[32],90.1%
same,"viability, T/C",[33],78.2%
same,"viability, T/C",[34],74.4%
same,"viability, T/C",[35],5.66%
same,"viability, T/C",[36],2.86%
O=C(c1cc(Cc2n[nH]c(=O)c3ccccc23)ccc1F)N1CCN(C(=O)C2CC2)CC1 + COC1C(OC(N)=O)C(O)C(Oc2ccc3c(O)c(NC(=O)c4ccc(O)c(CC=C(C)C)c4)c(=O)oc3c2C)OC1(C)C,IC50,second compound 0.0316 µM,> 10 µM
same,IC50,second compound 0.1 µM,> 10 µM
same,IC50,second compound 0.316 µM,> 10 µM
same,IC50,second compound 1 µM,> 10 µM
same,IC50,second compound 3.16 µM,> 10 µM
same,IC50,second compound 10 µM,> 10 µM
same,"viability, T/C",[1],112%
same,"viability, T/C",[2],94.8%
same,"viability, T/C",[3],106%
same,"viability, T/C",[4],97.2%
same,"viability, T/C",[5],109%
same,"viability, T/C",[6],103%
same,"viability, T/C",[7],117%
same,"viability, T/C",[8],94.9%
same,"viability, T/C",[9],90.8%
same,"viability, T/C",[10],96.2%
same,"viability, T/C",[11],92.6%
same,"viability, T/C",[12],100%
same,"viability, T/C",[13],106%
same,"viability, T/C",[14],97.5%
same,"viability, T/C",[15],93.2%
same,"viability, T/C",[16],90.8%
same,"viability, T/C",[17],103%
same,"viability, T/C",[18],93.2%
same,"viability, T/C",[19],94.5%
same,"viability, T/C",[20],104%
same,"viability, T/C",[21],100%
same,"viability, T/C",[22],87.2%
same,"viability, T/C",[23],101%
same,"viability, T/C",[24],103%
same,"viability, T/C",[25],108%
same,"viability, T/C",[26],107%
same,"viability, T/C",[27],106%
same,"viability, T/C",[28],94.2%
same,"viability, T/C",[29],99.5%
same,"viability, T/C",[30],96.2%
same,"viability, T/C",[31],88%
same,"viability, T/C",[32],103%
same,"viability, T/C",[33],96.3%
same,"viability, T/C",[34],92.2%
same,"viability, T/C",[35],107%
same,"viability, T/C",[36],97.2%
O=c1[nH]cc(F)c(=O)[nH]1 + COC1C(OC(N)=O)C(O)C(Oc2ccc3c(O)c(NC(=O)c4ccc(O)c(CC=C(C)C)c4)c(=O)oc3c2C)OC1(C)C,IC50,second compound 0.0316 µM,> 10 µM
same,IC50,second compound 0.1 µM,> 10 µM
same,IC50,second compound 0.316 µM,> 10 µM
same,IC50,second compound 1 µM,> 10 µM
same,IC50,second compound 3.16 µM,> 10 µM
same,IC50,second compound 10 µM,> 10 µM
same,"viability, T/C",[1],100%
same,"viability, T/C",[2],92.8%
same,"viability, T/C",[3],90.8%
same,"viability, T/C",[4],110%
same,"viability, T/C",[5],87.9%
same,"viability, T/C",[6],96.8%
same,"viability, T/C",[7],105%
same,"viability, T/C",[8],103%
same,"viability, T/C",[9],85.2%
same,"viability, T/C",[10],95.4%
same,"viability, T/C",[11],89.2%
same,"viability, T/C",[12],89.1%
same,"viability, T/C",[13],101%
same,"viability, T/C",[14],90%
same,"viability, T/C",[15],87.1%
same,"viability, T/C",[16],87.4%
same,"viability, T/C",[17],109%
same,"viability, T/C",[18],91.3%
same,"viability, T/C",[19],88.9%
same,"viability, T/C",[20],89.8%
same,"viability, T/C",[21],86.2%
same,"viability, T/C",[22],87.7%
same,"viability, T/C",[23],100%
same,"viability, T/C",[24],88.5%
same,"viability, T/C",[25],95%
same,"viability, T/C",[26],95.5%
same,"viability, T/C",[27],90.2%
same,"viability, T/C",[28],92.3%
same,"viability, T/C",[29],101%
same,"viability, T/C",[30],91.3%
same,"viability, T/C",[31],91.3%
same,"viability, T/C",[32],91.3%
same,"viability, T/C",[33],92.5%
same,"viability, T/C",[34],96.3%
same,"viability, T/C",[35],93.1%
same,"viability, T/C",[36],89.9%
